Species on record: Rattus norvegicus
Assay: Open TG-GATES - Regimen: Single
Assay type: toxicity, organism-based, Sprague-Dawley
Parameters: regimen Single, gender Male, age 6 weeks
Details: in vivo, po, 1000 mg/kg, route gavage, dose level High; for APTT / Bas / Eos / Fbg / Hb / Ht / Lym / MCH / MCHC / MCV / Mono / Neu / PT / Plat / RBC / Ret / WBC: tissue Blood; for KIDNEY_L / KIDNEY_R / KIDNEY_TOTAL: tissue Kidney; for LIVER: tissue Liver; for A/G / ALP / ALT / AST / BUN / CRE / Ca / Cl / DBIL / GLC / IP / K / LDH / Na / PL / RALB / TBIL / TC / TG / TP / gamma-GTP: tissue Plasma

Question: For CCCCNC(=O)NS(=O)(=O)c1ccc(C)cc1 [TOLBUTAMIDE], which TERMINAL_BW (3 h) is on record?
Answer: 206.8 g

Question: And the APTT (3 h)?
Answer: 17 s

Question: What about the Bas (3 h) of the same molecule?
Answer: 0%

Question: What about the Eos (3 h) of the same molecule?
Answer: 0.8%

Question: And the Fbg (3 h)?
Answer: 292.2 mg/dL

Question: What about the Hb (3 h) of the same molecule?
Answer: 14.1 g/dL

Question: What about the Ht (3 h) of the same molecule?
Answer: 43.1%

Question: What about the Lym (3 h) of the same molecule?
Answer: 76.8%

Question: What about the MCH (3 h) of the same molecule?
Answer: 21 pg

Question: And the MCHC (3 h)?
Answer: 32.6%

Question: What about the MCV (3 h) of the same molecule?
Answer: 64.4 fL

Question: And the Mono (3 h)?
Answer: 3%

Question: What about the Neu (3 h) of the same molecule?
Answer: 18.6%

Question: And the PT (3 h)?
Answer: 12.9 s

Question: And the Plat (3 h)?
Answer: 111.8 x10_4/uL

Question: And the RBC (3 h)?
Answer: 669.4 x10_4/ul

Question: And the Ret (3 h)?
Answer: 9%

Question: And the WBC (3 h)?
Answer: 54.6 x10_2/uL

Question: What about the KIDNEY_L (3 h) of the same molecule?
Answer: 0.9 g

Question: What about the KIDNEY_R (3 h) of the same molecule?
Answer: 0.9 g

Question: And the KIDNEY_TOTAL (3 h)?
Answer: 1.8 g

Question: What about the LIVER (3 h) of the same molecule?
Answer: 9.4 g

Question: And the A/G (3 h)?
Answer: 0.9

Question: And the ALP (3 h)?
Answer: 1359.4 IU/L

Question: What about the ALT (3 h) of the same molecule?
Answer: 46.8 IU/L

Question: What about the AST (3 h) of the same molecule?
Answer: 77.6 IU/L

Question: What about the BUN (3 h) of the same molecule?
Answer: 12.4 mg/dL

Question: What about the CRE (3 h) of the same molecule?
Answer: 0.2 mg/dL

Question: What about the Ca (3 h) of the same molecule?
Answer: 10.9 mg/dL

Question: And the Cl (3 h)?
Answer: 105.8 meq/L

Question: And the DBIL (3 h)?
Answer: 0.004 mg/dL

Question: And the GLC (3 h)?
Answer: 152 mg/dL

Question: What about the IP (3 h) of the same molecule?
Answer: 9.3 mg/dL

Question: What about the K (3 h) of the same molecule?
Answer: 4 meq/L

Question: What about the LDH (3 h) of the same molecule?
Answer: 56.4 IU/L

Question: What about the Na (3 h) of the same molecule?
Answer: 140.6 meq/L

Question: And the PL (3 h)?
Answer: 138.2 mg/dL

Question: And the RALB (3 h)?
Answer: 2.7 g/dL

Question: And the TBIL (3 h)?
Answer: 0.05 mg/dL

Question: What about the TC (3 h) of the same molecule?
Answer: 73.6 mg/dL

Question: And the TG (3 h)?
Answer: 75 mg/dL

Question: What about the TP (3 h) of the same molecule?
Answer: 5.6 g/dL

Question: And the gamma-GTP (3 h)?
Answer: 1 IU/L

Question: What about the TERMINAL_BW (6 h) of the same molecule?
Answer: 203.1 g

Question: And the APTT (6 h)?
Answer: 16.9 s

Question: What about the Bas (6 h) of the same molecule?
Answer: 0%

Question: And the Eos (6 h)?
Answer: 1%

Question: What about the Fbg (6 h) of the same molecule?
Answer: 321.6 mg/dL

Question: And the Hb (6 h)?
Answer: 14.1 g/dL

Question: And the Ht (6 h)?
Answer: 43%

Question: And the Lym (6 h)?
Answer: 72%

Question: And the MCH (6 h)?
Answer: 21.4 pg

Question: What about the MCHC (6 h) of the same molecule?
Answer: 32.7%

Question: What about the MCV (6 h) of the same molecule?
Answer: 65.3 fL

Question: And the Mono (6 h)?
Answer: 3.4%

Question: What about the Neu (6 h) of the same molecule?
Answer: 23.6%

Question: What about the PT (6 h) of the same molecule?
Answer: 12.8 s

Question: And the Plat (6 h)?
Answer: 120.2 x10_4/uL

Question: What about the RBC (6 h) of the same molecule?
Answer: 659.8 x10_4/ul

Question: What about the Ret (6 h) of the same molecule?
Answer: 8.9%

Question: What about the WBC (6 h) of the same molecule?
Answer: 69.4 x10_2/uL

Question: What about the KIDNEY_L (6 h) of the same molecule?
Answer: 0.9 g

Question: What about the KIDNEY_R (6 h) of the same molecule?
Answer: 0.9 g

Question: What about the KIDNEY_TOTAL (6 h) of the same molecule?
Answer: 1.8 g

Question: What about the LIVER (6 h) of the same molecule?
Answer: 8.5 g

Question: What about the A/G (6 h) of the same molecule?
Answer: 0.9

Question: And the ALP (6 h)?
Answer: 1301 IU/L

Question: And the ALT (6 h)?
Answer: 39 IU/L

Question: What about the AST (6 h) of the same molecule?
Answer: 70.6 IU/L

Question: What about the BUN (6 h) of the same molecule?
Answer: 12.6 mg/dL

Question: And the CRE (6 h)?
Answer: 0.2 mg/dL

Question: What about the Ca (6 h) of the same molecule?
Answer: 11 mg/dL

Question: What about the Cl (6 h) of the same molecule?
Answer: 105.2 meq/L

Question: And the DBIL (6 h)?
Answer: 0.008 mg/dL

Question: What about the GLC (6 h) of the same molecule?
Answer: 140 mg/dL

Question: What about the IP (6 h) of the same molecule?
Answer: 9.8 mg/dL

Question: And the K (6 h)?
Answer: 3.9 meq/L

Question: And the LDH (6 h)?
Answer: 56 IU/L

Question: What about the Na (6 h) of the same molecule?
Answer: 140.6 meq/L

Question: What about the PL (6 h) of the same molecule?
Answer: 144.4 mg/dL

Question: What about the RALB (6 h) of the same molecule?
Answer: 2.7 g/dL

Question: And the TBIL (6 h)?
Answer: 0.054 mg/dL

Question: And the TC (6 h)?
Answer: 79.6 mg/dL

Question: And the TG (6 h)?
Answer: 64.2 mg/dL

Question: And the TP (6 h)?
Answer: 5.7 g/dL

Question: What about the gamma-GTP (6 h) of the same molecule?
Answer: 1.2 IU/L

Question: What about the TERMINAL_BW (9 h) of the same molecule?
Answer: 197.9 g

Question: What about the APTT (9 h) of the same molecule?
Answer: 17.7 s

Question: And the Bas (9 h)?
Answer: 0.2%

Question: And the Eos (9 h)?
Answer: 1%

Question: And the Fbg (9 h)?
Answer: 332.8 mg/dL

Question: What about the Hb (9 h) of the same molecule?
Answer: 14.4 g/dL

Question: And the Ht (9 h)?
Answer: 43.7%

Question: What about the Lym (9 h) of the same molecule?
Answer: 75%

Question: And the MCH (9 h)?
Answer: 21 pg

Question: What about the MCHC (9 h) of the same molecule?
Answer: 33.1%

Question: And the MCV (9 h)?
Answer: 63.4 fL

Question: And the Mono (9 h)?
Answer: 1.8%

Question: And the Neu (9 h)?
Answer: 22%

Question: What about the PT (9 h) of the same molecule?
Answer: 13.1 s

Question: What about the Plat (9 h) of the same molecule?
Answer: 127.4 x10_4/uL

Question: What about the RBC (9 h) of the same molecule?
Answer: 689.4 x10_4/ul

Question: What about the Ret (9 h) of the same molecule?
Answer: 8.2%

Question: What about the WBC (9 h) of the same molecule?
Answer: 56.7 x10_2/uL

Question: And the KIDNEY_L (9 h)?
Answer: 0.9 g

Question: And the KIDNEY_R (9 h)?
Answer: 0.9 g

Question: And the KIDNEY_TOTAL (9 h)?
Answer: 1.9 g

Question: And the LIVER (9 h)?
Answer: 7.8 g

Question: And the A/G (9 h)?
Answer: 0.9

Question: And the ALP (9 h)?
Answer: 1554.6 IU/L

Question: What about the ALT (9 h) of the same molecule?
Answer: 38.8 IU/L

Question: What about the AST (9 h) of the same molecule?
Answer: 69.8 IU/L

Question: And the BUN (9 h)?
Answer: 11.2 mg/dL

Question: What about the CRE (9 h) of the same molecule?
Answer: 0.2 mg/dL

Question: And the Ca (9 h)?
Answer: 10.7 mg/dL

Question: And the Cl (9 h)?
Answer: 106 meq/L

Question: What about the DBIL (9 h) of the same molecule?
Answer: 0.006 mg/dL

Question: And the GLC (9 h)?
Answer: 125.2 mg/dL

Question: And the IP (9 h)?
Answer: 10.4 mg/dL

Question: What about the K (9 h) of the same molecule?
Answer: 3.9 meq/L

Question: What about the LDH (9 h) of the same molecule?
Answer: 53.6 IU/L

Question: And the Na (9 h)?
Answer: 141.4 meq/L

Question: What about the PL (9 h) of the same molecule?
Answer: 127 mg/dL

Question: And the RALB (9 h)?
Answer: 2.7 g/dL

Question: And the TBIL (9 h)?
Answer: 0.056 mg/dL

Question: What about the TC (9 h) of the same molecule?
Answer: 66.2 mg/dL

Question: What about the TG (9 h) of the same molecule?
Answer: 44.2 mg/dL

Question: What about the TP (9 h) of the same molecule?
Answer: 5.8 g/dL

Question: What about the gamma-GTP (9 h) of the same molecule?
Answer: 1 IU/L

Question: And the TERMINAL_BW (24 h)?
Answer: 213.9 g

Question: And the APTT (24 h)?
Answer: 16.6 s

Question: What about the Bas (24 h) of the same molecule?
Answer: 0%

Question: And the Eos (24 h)?
Answer: 1%

Question: What about the Fbg (24 h) of the same molecule?
Answer: 274 mg/dL

Question: And the Hb (24 h)?
Answer: 13.3 g/dL

Question: And the Ht (24 h)?
Answer: 41.1%

Question: What about the Lym (24 h) of the same molecule?
Answer: 80%

Question: And the MCH (24 h)?
Answer: 21 pg

Question: What about the MCHC (24 h) of the same molecule?
Answer: 32.5%

Question: And the MCV (24 h)?
Answer: 64.4 fL

Question: And the Mono (24 h)?
Answer: 3%

Question: What about the Neu (24 h) of the same molecule?
Answer: 15.6%

Question: What about the PT (24 h) of the same molecule?
Answer: 13.4 s

Question: What about the Plat (24 h) of the same molecule?
Answer: 117.8 x10_4/uL

Question: And the RBC (24 h)?
Answer: 637.8 x10_4/ul

Question: And the Ret (24 h)?
Answer: 7.3%

Question: What about the WBC (24 h) of the same molecule?
Answer: 83.8 x10_2/uL

Question: What about the KIDNEY_L (24 h) of the same molecule?
Answer: 0.9 g

Question: And the KIDNEY_R (24 h)?
Answer: 0.9 g

Question: And the KIDNEY_TOTAL (24 h)?
Answer: 1.8 g

Question: What about the LIVER (24 h) of the same molecule?
Answer: 9.4 g

Question: And the A/G (24 h)?
Answer: 0.9

Question: What about the ALP (24 h) of the same molecule?
Answer: 1517.2 IU/L

Question: And the ALT (24 h)?
Answer: 44.2 IU/L

Question: What about the AST (24 h) of the same molecule?
Answer: 75.4 IU/L

Question: And the BUN (24 h)?
Answer: 15.4 mg/dL

Question: And the CRE (24 h)?
Answer: 0.2 mg/dL

Question: What about the Ca (24 h) of the same molecule?
Answer: 10.9 mg/dL

Question: And the Cl (24 h)?
Answer: 106.6 meq/L

Question: What about the DBIL (24 h) of the same molecule?
Answer: 0.006 mg/dL

Question: And the GLC (24 h)?
Answer: 201.4 mg/dL

Question: And the IP (24 h)?
Answer: 8.4 mg/dL

Question: And the K (24 h)?
Answer: 3.9 meq/L

Question: What about the LDH (24 h) of the same molecule?
Answer: 73.4 IU/L

Question: And the Na (24 h)?
Answer: 141.6 meq/L

Question: And the PL (24 h)?
Answer: 136.6 mg/dL

Question: And the RALB (24 h)?
Answer: 2.5 g/dL

Question: What about the TBIL (24 h) of the same molecule?
Answer: 0.058 mg/dL

Question: And the TC (24 h)?
Answer: 77.2 mg/dL

Question: And the TG (24 h)?
Answer: 72.2 mg/dL

Question: And the TP (24 h)?
Answer: 5.4 g/dL

Question: What about the gamma-GTP (24 h) of the same molecule?
Answer: 1 IU/L

Reference: ChEMBL document CHEMBL3885861, “Open TG-GATES”
